Key:
Assay type in all cases: cell-based, canine
OA-Associated Genes [1] = assay: Microarray analysis of chondrocyte beads treated with 1,25 D3 or 24,25 D3; conditions: summary statement, Tables 19-20
From the text: Microarray probes were generated by PCR-amplifying clones isolated from differential display. Probes were spotted in duplicate onto poly-L-lysine coated slides using a GMS417 (Affymetrix) arrayer. Osteoarthritic cartilage samples were obtained from the femoral heads of clinically diagnosed canines undergoing total […] replacement. RNA was hybridized to the slides using the HC ExpressArray ([…]) kit and visualized using a GMS418 (Affymetrix) scanner. The […] (Biodiscovery) program was used for spot finding and subsequent data analysis was performed using GeneSight (Biodiscovery). Expression levels are represented after background subtraction, log(base 2) transformation and global slide signal normalization. […] Scanned images representing RNA transcripts bound to specific clones were quantified and checked for spot quality control using […] analysis software (BioDiscovery). Quantified images were analyzed using […] analysis software (BioDiscovery). The analysis represented subtraction of background surrounding the spots, averaging spot replicates, deletion of clone information representing clone hybridization signals not greater than 200 above background on all samples, log (base 2) transformation and global normalization of each slide (values expressed as percent of average spot intensity). […]

OA-Associated Genes [2] = assay: Microarray analysis of chondrocyte beads treated with glucosamine; conditions: summary statement, Tables 13-18
From the text: (§1) Microarray probes were generated by PCR-amplifying clones isolated from differential display. Probes were spotted in duplicate onto poly-L-lysine coated slides using a GMS417 (Affymetrix) arrayer. Osteoarthritic cartilage samples were obtained from the femoral heads of clinically diagnosed canines undergoing total […] replacement. RNA was hybridized to the slides using the HC ExpressArray (Digene) kit and visualized using a GMS418 (Affymetrix) scanner. The Imagene (Biodiscovery) program was used for spot finding and subsequent data analysis was performed using GeneSight (Biodiscovery). Expression levels are represented after background subtraction, log(base 2) transformation and global slide signal normalization. […]
(§2) Scanned images representing RNA transcripts bound to specific clones were quantified and checked for spot quality control using Imagene analysis software (BioDiscovery). Quantified images were analyzed using Genesight analysis software (BioDiscovery). The analysis represented subtraction of background surrounding the spots, averaging spot replicates, deletion of clone information representing clone hybridization signals not greater than 200 above background on all samples, log (base 2) transformation and global normalization of each slide (values expressed as percent of average spot intensity). […]

OA-Associated Genes [3] = assay: Microarray analysis of chondrocytes enriched with EPA or AA; conditions: summary statement, Tables 21-23
From the text: as §1, §2

OA-Associated Genes [4] = assay: Microarray analysis of chondrocyte beads treated with chondroitin sulfate; conditions: summary statement, Tables 7-12
From the text: as §1, §2

C=C1/C(=C\C=C2/CCC[C@]3(C)[C@@H]([C@H](C)CCCC(C)(C)O)CC[C@@H]23)C[C@@H](O)C[C@@H]1O [1α,25-dihydroxyvitamin D3]
effect on expression of OA-related genes (OA-Associated Genes [1]): affected the expression of OA-related genes

C=C1CC[C@H](O)C/C1=C/C=C1\CCC[C@]2(C)[C@@H]([C@H](C)CC[C@@H](O)C(C)(C)O)CC[C@@H]12 [24R,25-dihydroxyvitamin D3]
effect on expression of OA-related genes (OA-Associated Genes [1]): affected the expression of OA-related genes

N[C@H]1C(O)O[C@H](CO)[C@@H](O)[C@@H]1O (some centres unmarked) [Glucosamine, glucosamine]
effect on OA-associated genes (OA-Associated Genes [2]): have an effect on a variety of OA-associated genes

CCCCC/C=C\C/C=C\C/C=C\C/C=C\CCCC(=O)O [arachidonic acid (AA), arachidonic acid]
effect on OA-related genes (OA-Associated Genes [3]): affect OA-related genes

chondroitin sulfate
effect on OA-associated genes (OA-Associated Genes [4]): have an effect on a wide variety of OA-associated genes
